Reference: publication PMC6153800, “Structure-Based Drug Design and Characterization of Sulfonyl-Piperazine Benzothiazinone Inhibitors of DprE1 from Mycobacterium tuberculosis” (Antimicrobial Agents and Chemotherapy, 2018)
≈ marks a conversion by molar mass, not a printed value.

tested on: M. tuberculosis NTB1 (DprE1 C387S mutant); format: cell-based, Mycobacterium tuberculosis

SMILES | MIC99 NTB1
O=c1nc(N2CCN(CC3CCCCC3)CC2)sc2c([N+](=O)[O-])cc(C(F)(F)F)cc12 [PBTZ169, macozinone, reference compound] | >100 µg/mL
CO[C@H]1/C=C/O[C@@]2(C)Oc3c(C)c(O)c4c(O)c(c(/C=N/N5CCN(C)CC5)c(O)c4c3C2=O)NC(=O)/C(C)=C\C=C\[C@H](C)[C@H](O)[C@@H](C)[C@@H](O)[C@@H](C)[C@H](OC(C)=O)[C@@H]1C [Rifampin, reference compound] | 0.0008 µg/mL (≈ 0.000972 µM)
O=c1nc(N2CCN(S(=O)(=O)c3cccs3)CC2)sc2c([N+](=O)[O-])cc(C(F)(F)F)cc12 [compound 11326059] | >100 µg/mL
O=c1nc(N2CCN(S(=O)(=O)C3CCCCC3)CC2)sc2c([N+](=O)[O-])cc(C(F)(F)F)cc12 [compound 11326127] | >100 µg/mL
O=c1nc(N2CCN(S(=O)(=O)C3CC3)CC2)sc2c([N+](=O)[O-])cc(C(F)(F)F)cc12 [compound 11626091] | 14.7 µg/mL (≈ 31.7 µM)
CCS(=O)(=O)N1CCN(c2nc(=O)c3cc(C(F)(F)F)cc([N+](=O)[O-])c3s2)CC1 [compound 11626092] | 25.1 µg/mL (≈ 55.5 µM)
CCCCS(=O)(=O)N1CCN(c2nc(=O)c3cc(C(F)(F)F)cc([N+](=O)[O-])c3s2)CC1 [compound 11626093] | >100 µg/mL
O=c1nc(N2CCN(S(=O)(=O)c3cccc4cnccc34)CC2)sc2c([N+](=O)[O-])cc(C(F)(F)F)cc12 [compound 11626094] | >100 µg/mL
CS(=O)(=O)N1CCN(c2nc(=O)c3cc(C(F)(F)F)cc([N+](=O)[O-])c3s2)CC1 [compound 11626095] | 75 µg/mL (≈ 171 µM)
